{"source": "patent US20250296942A1", "about": "“Phosphonate-Based Coordination Complexes and Methods of Preparation and Use Thereof” (University of Puerto Rico, priority 2021, published 2025)", "key": {"[1]": {"system": "human breast cancer MDA-MB-231 cell line", "test": "AlamarBlue cytotoxicity, 2,2′-BPBPA series, MDA-MB-231", "assay_type": "cell-based", "conditions": "24, 48, 72 h", "description": "Cell culture methods. MCF-7 and MDA-MB-231 were incubated using DMEM at 37° C. in 5% CO2. The hFOB 1.19 cell lines were incubated with DMEM: F12 at 34° C. in 5% CO2.\nCell lines were supplemented using 10% FBS and 1% Pen-Strep. The media was replaced twice per week. Cell passages were carried out at 80% confluency.\nCell-based assays. Cell lines were seeded in 96 well plates at a density of 5x 10^3 cells/mL and incubated for 24 h before treatment. Cells were treated with 100 μL of 2,2′-BPBPA (0-400 μM), unloaded and loaded nano-Ca@2,2′-BPBPA (6.3-50 μM) for 24, 48, and 72 h.\nControl groups were treated with media (DMEM or DMEM: F12) supplemented with 1% Pen-Strep. Cell viability was determined by employing AlamarBLue@. The media was replaced with 100 μL of 10% AlamarBlue® solution. After 24 h of incubation, the fluorescence was assessed at )max of 560 nm for excitation and 590 nm for emission.\nCell culture methods. MCF-7 and MDA-MB-231 were incubated using DMEM at 37° C. in 5% CO2. The hFOB 1.19 cell lines were incubated with DMEM: F12 at 34° C. in 5% CO2. Cell lines were supplemented using 10% FBS and 1% Pen-Strep. The media was replaced twice times per week. Cell passages were carried out at 80% confluency.\nSeeding. […]\nAlamarBlue@assay. […] Then, the fluorescence was assessed at 560 nm of excitation and λmax 590 nm of emission. […]"}, "[2]": {"test": "Hydroxyapatite (HA) affinity/binding assay of 2,2′-BPBPA and nano-Ca@2,2′-BPBPA", "conditions": "0.5 mg/mL, HA 20 mg, PBS, duplicate"}, "[3]": {"test": "Hydroxyapatite (HA) affinity/binding assay of 2,2′-BPBPA and nano-Ca@2,2′-BPBPA", "conditions": "for Amount (%) bound to HA, Mean: HA 20 mg, duplicate", "description": "(§1) Affinity assays experiment. Synthetic HA was employed to explore the affinity of nano-Ca@2,2′-BPBPA to the bone microenvironment. HA (20 mg) was exposed to nano-Ca@2,2′-BPBPA (5 mL, 0.5 mg/mL). The 2,2′-BPBPA (0.5 mg/mL) and HA (20 mg) were used as control groups. All experimental and control groups were left under constant stirring (150 rpm) for 0-12 d. Finally, the supernatant was collected, centrifuged (5 min, 1500 rpm), and the absorbance was measured at λmax=299 nm of maximum absorption (1, 2, 3, 4, 7, 8, 9, 10, 11, 12 d) to determine the amount (%) of 2,2′-BPBPA bound to HA after each period. The experiment was performed in duplicate. Once the experiment was completed, HA, HA-2,2′-BPBPA, and HA-nano-Ca@2,2′-BPBPA were characterized by SEM-EDS and PXRD.\nThe affinity of nano-Ca@22′-BPBPA to the bone was investigated using hydroxyapatite (HA). The HA is the main constituent of the bone microenvironment; this mineral represents an ideal target when treating bone-related diseases.^45 The binding assay of the nano-Ca@2,2′-BPBPA to HA was performed in PBS at 37° C., the HA as a received reagent was exposed to this nano-BPCCs for 0-12 d. The binding assay for 2,2′-BPBPA to HA was determined as a control experiment. The affinity of these materials to HA was assessed by measuring the absorbance of the supernatant at the lambda max (λmax=299 nm) to quantify the decrease in the 2,2′-BPBPA concentration over time. Binding curves (FIG. 163A) reveal that 2,2′-BPBPA and the nano-Ca@2,2′-BPBPA presented between 32 to 37% binding to HA after 2 d. The ligand reaches about 90% of binding to HA after 7 d while the nano-Ca@2,2′-BPBPA offers a 93% of binding to this mineral after 8 d.\nas §1, with “Binding assay with hydroxyapatite (HA).” for “Affinity assays experiment.”, “Experiment” for “The experiment”, “PXRD. Table 35 present the percentage (%) of 2,2′-BPBPA and nano-Ca@2,2′-BPBPA bound to HA in PBS. FIGS. 200-201 show the binding curves for 2,2′-BPBPA and nano-Ca@2,2′-BPBPA.” for “PXRD.”"}}, "note": "pIC50: −log10 of the molar value.", "data": [{"compound": "O=P(O)(O)c1ccc(-c2ccc(P(=O)(O)O)cn2)nc1", "note": "[2,2′-BPBPA, 2,2′-bipyridine-5,5′-bisphosphonic acid]", "values": [{"measurement": "pIC50", "setting": "[1]", "result": "< 3.70"}, {"measurement": "Amount (%) bound to HA, Mean", "setting": "[2]; 5 d", "result": 82, "unit": "%"}, {"measurement": "Amount (%) bound to HA, Mean", "setting": "[2]; 6 d", "result": 88, "unit": "%"}, {"measurement": "maximum binding to HA", "setting": "[3]; 0.5 mg/mL", "result": 99, "unit": "%"}, {"measurement": "time to reach maximum binding to HA", "setting": "[3]; 0.5 mg/mL", "result": 12, "unit": "days"}, {"measurement": "Amount (%) bound to HA, Mean", "setting": "[3]; 0.5 mg/mL, PBS, 1 d", "result": 18, "unit": "%"}, {"measurement": "Amount (%) bound to HA, Mean", "setting": "[3]; 0.5 mg/mL, PBS, 2 d", "result": 37, "unit": "%"}, {"measurement": "Amount (%) bound to HA, Mean", "setting": "[3]; 0.5 mg/mL, PBS, 3 d", "result": 66, "unit": "%"}, {"measurement": "Amount (%) bound to HA, Mean", "setting": "[3]; 0.5 mg/mL, PBS, 4 d", "result": 71, "unit": "%"}, {"measurement": "Amount (%) bound to HA, Mean", "setting": "[3]; 0.5 mg/mL, PBS, 7 d", "result": 90, "unit": "%"}, {"measurement": "Amount (%) bound to HA, Mean", "setting": "[3]; 0.5 mg/mL, PBS, 8 d", "result": 99, "unit": "%"}, {"measurement": "Amount (%) bound to HA, Mean", "setting": "[3]; 0.5 mg/mL, PBS, 11 d", "result": 99, "unit": "%"}, {"measurement": "Amount (%) bound to HA, Mean", "setting": "[3]; 0.5 mg/mL, PBS, 12 d", "result": 99, "unit": "%"}, {"measurement": "bound to HA", "setting": "[3]; PBS, 37 °C, 7 d", "result": "about 90%"}]}]}
